These results are taken from PMC6830379 (International Journal of Nanomedicine, 2019).

By solubility is commonly meant the concentration that dissolves in the medium under given conditions. Broadly, the aqueous solubility is the concentration that dissolves in the medium under given conditions.

Structures are written as SMILES. Structures can show the parent of a compound that is named as a salt. Where two headings read alike, the source gives them in different places.

The nature of series [1]: Determination of SQR solubility in oils, surfactants and co-surfactants. It counts as physicochemical. The settings on record: ethanol.
For series [2] the following is noted: cited from earlier work.
For series [3] the following is noted: depending on the dosage form; reported, ref not given; cited from earlier work.

As to `CC(C)(C)NC(=O)[C@@H]1C[C@@H]2CCCC[C@@H]2CN1C[C@@H](O)[C@H](Cc1ccccc1)NC(=O)[C@H](CC(N)=O)NC(=O)c1ccc2ccccc2n1` [SQR, Saquinavir mesylate], in series [1], the solubility at 72 h amounted to 126 mg/mL. Besides, the aqueous solubility in series [2] (pH of 6.5) is 0.073 mg/mL; in series [2] (pH of 7.4), 0.036 mg/mL. In series [3], the oral bioavailability was 0.7–4.0%.
